Test: relative thermodynamic stability of solid forms of Compound I as a function of water activity
Assay type: physicochemical
Details: from about 0 to 0.5 or 0.6 water activity at room temperature

thermodynamic stability relative to other forms of the compound: most thermodynamically stable form
Structure (SMILES): O=C(CCc1c(-c2ccc(F)cc2)[nH]c2ccccc12)N[C@@H]1C(=O)NC[C@H]1O [Compound 1 Form B]
